Test results published in patent US5714485A, “Piperidine and hexahydropyridazine thrombin inhibitors” (Merck & Co., Inc., priority 1997, dated 1998).

Target: T1, human a-thrombin (Homo sapiens, UniProt P00734)
T1 construct: human a-thrombin
Assay: In vitro assay for determining proteinase inhibition: human a-thrombin
Format: biochemical
Conditions: not given
Protocol: Assays of human a-thrombin and bovine trypsin were performed at 25° C. in 0.05M TRIS buffer pH 7.4, 0.15M NaCl, 0.1% PEG. Trypsin assays also contained 1 mM CaCl2.
Concentrations of stock solutions of Z-GPR-afc were determined from measurements of absorbance at 380 nm of the 7-amino-4-trifluoromethyl coumarin produced upon complete hydrolysis of an aliquot of the stock solution by thrombin.
Activity assays were performed by diluting a stock solution of substrate at least tenfold to a final concentration ≥0. I Km into a solution containing enzyme or enzyme equilibrated with inhibitor. Times required to achieve equilibration between enzyme and inhibitor were determined in control experiments. Initial velocities of product formation in the absence (Vo) or presence of inhibitor (Vi) were measured. Assuming competitive inhibition, and that unity is negligible compared Km /[S], […] (where [S], [I], and e respectively represent the total concentrations, of substrate, inhibitor and enzyme), the equilibrium constant (Ki) for dissociation of the inhibitor from the enzyme can be obtained from the dependence of Vo /Vi on [I] shown in equation 1.

Structure (SMILES) | Ki [nM]
N[C@H]1CC[C@H](CNC(=O)[C@@H]2CCCN2C(=O)C2(O)c3ccccc3Sc3ccccc32)CC1 | 3
N[C@H]1CC[C@H](CNC(=O)[C@@H]2CCCN2C(=O)[C@@H](Cc2ccccc2)NS(=O)(=O)Cc2ccccc2)CC1 | 0.4

Same assay, conditions: Table 1, part headed Ki (NM); read-out: Ki vs thrombin

Structure (SMILES) | Ki [nM]
N[C@H]1CC[C@H](CNC(=O)[C@@H]2CCCN2C(=O)[C@@H](Cc2c[nH]c3ccccc23)NC(=O)OCc2ccccc2)CC1 | 16
CC(C)(C)OC(=O)N[C@@H](C(=O)N1CCC[C@H]1C(=O)NC[C@H]1CC[C@H](N)CC1)c1ccccc1 | 6.8
CC(C)(C)OC(=O)N[C@H](CCc1ccccc1)C(=O)N1CCC[C@H]1C(=O)NC[C@H]1CC[C@H](N)CC1 | 50
CC(C)(C)OC(=O)N[C@H](CC1CCCCC1)C(=O)N1CCC[C@H]1C(=O)NC[C@H]1CC[C@H](N)CC1 | 12
N[C@H]1CC[C@H](CNC(=O)[C@@H]2CCCN2C(=O)[C@@H](Cc2ccccc2)NC(=O)OCc2ccncc2)CC1 | 15
CC(C)(C)OC[C@@H](NC(=O)OC(C)(C)C)C(=O)N1CCC[C@H]1C(=O)NC[C@H]1CC[C@H](N)CC1 [BocNH, CH2 O-tBu] | 6
CC(C)(C)C[C@@H](NC(=O)OCc1ccccc1)C(=O)N1CCC[C@H]1C(=O)NC[C@H]1CC[C@H](N)CC1 [CbzNH, CH2 -tBu] | 2.3

Same assay, conditions: Table 1; read-out: Ki vs Thrombin

Structure (SMILES) | Ki [nM]
N[C@H](Cc1ccccc1)C(=O)N1CCC[C@H]1C(=O)NC[C@H]1CC[C@H](N)CC1 [PhCH2, NH2] | 3.4
N[C@H](Cc1cccnc1)C(=O)N1CCC[C@H]1C(=O)NC[C@H]1CC[C@H](N)CC1 | 30
CS(=O)(=O)N[C@H](Cc1ccccc1)C(=O)N1CCC[C@H]1C(=O)NC[C@H]1CC[C@H](N)CC1 [PhCH2, CH3 SO2 NH] | 17
CC(=O)N[C@H](Cc1ccccc1)C(=O)N1CCC[C@H]1C(=O)NC[C@H]1CC[C@H](N)CC1 | 170
N[C@H]1CC[C@H](CNC(=O)[C@@H]2CCCN2C(=O)CCC2CCCCC2)CC1 [C6 H11 CH2, H] | 150
CC(C)(C)OC(=O)N[C@@H](C(=O)N1CCC[C@H]1C(=O)NC[C@H]1CC[C@H](N)CC1)[C@@H](OC(C)(C)C)c1ccccc1 | 8
N[C@H]1CC[C@H](CNC(=O)[C@@H]2CCCN2C(=O)[C@@H](CC2CCCCC2)NS(=O)(=O)CC(F)(F)F)CC1 | 3
N[C@H](Cc1ccc2ccccc2c1)C(=O)N1CCC[C@H]1C(=O)NC[C@H]1CC[C@H](N)CC1 | 27
N[C@H]1CC[C@H](CNC(=O)[C@@H]2CCCN2C(=O)C2Cc3ccccc3CN2)CC1 (some centres unmarked) | 152
CN[C@H](Cc1ccc(Cl)c(Cl)c1)C(=O)N1CCC[C@H]1C(=O)NC[C@H]1CC[C@H](N)CC1 [3,4-Cl2PhCH2, CH3 NH] | 2.9
N[C@H]1CC[C@H](CNC(=O)[C@@H]2CCCN2C(=O)CCc2ccccc2)CC1 [PhCH2, H] | 680
N[C@H]1CC[C@H](CNC(=O)[C@@H]2CCCN2C(=O)[C@@H](Cc2ccccc2)NCCc2ccccc2)CC1 | 4
CC(C)(C)OC(=O)N[C@@H](C(=O)N1CCC[C@H]1C(=O)NC[C@H]1CC[C@H](N)CC1)C(OC(C)(C)C)c1ccccc1 (some centres unmarked) | 200
CN[C@H](CC1CCCCC1)C(=O)N1CCC[C@H]1C(=O)NC[C@H]1CC[C@H](N)CC1 | 2.3
N[C@H]1CC[C@H](CNC(=O)[C@@H]2CCCN2C(=O)CCc2ccc(Cl)c(Cl)c2)CC1 [3,4-Cl2PhCH2, H] | 414
N[C@H]1CC[C@H](CNC(=O)[C@@H]2CCCN2C(=O)[C@H](O)Cc2ccccc2)CC1 | 63
CC(=O)N1CCC[C@H]1C(=O)NC[C@H]1CC[C@H](N)CC1 [H, H] | > 10000
CC(C)(C)OC(=O)N[C@H](Cc1ccccc1)C(=O)N1CCC[C@H]1C(=O)NC[C@H]1CC[C@H](N)CC1 | 9.4
N[C@H]1CC[C@H](CNC(=O)[C@@H]2CCCN2C(=O)[C@@H](Cc2ccccc2)NC(=O)OCc2ccccc2)CC1 | 3.7
N[C@H](Cc1ccc(Cl)c(Cl)c1)C(=O)N1CCC[C@H]1C(=O)NC[C@H]1CC[C@H](N)CC1 [3,4-Cl2PhCH2, NH2] | 1.5

Same assay, conditions: Table 2, lower part; head Ki(nM) without target; read-out: Ki

Structure (SMILES) | Ki [nM]
N[C@H]1CC[C@H](CNC(=O)[C@@H]2CCCN2C(=O)C2(O)c3ccccc3-c3ccccc32)CC1 | 1.5
C[C@@H](N[C@@H](C(=O)N1CCC[C@H]1C(=O)NC[C@H]1CC[C@H](N)CC1)C(c1ccccc1)c1ccccc1)C(=O)O [drawing 41] | 0.05
N[C@H]1CC[C@H](CNC(=O)[C@@H]2CCCN2C(=O)[C@H](NCC(=O)O)C(c2ccc(Cl)cc2)c2ccc(Cl)cc2)CC1 | 0.13
N[C@H]1CC[C@H](CNC(=O)[C@@H]2CCCN2C(=O)[C@H](NCC(=O)O)C(c2ccccc2)c2ccccc2)CC1 [drawing 39] | 0.17
N[C@H]1CC[C@H](CNC(=O)[C@@H]2CCCN2C(=O)C2COc3ccccc3O2)CC1 (some centres unmarked) | 55

Same assay, conditions: Table 2; read-out: Ki vs thrombin

Structure (SMILES) | Ki [nM]
CC(C)(C)OC(=O)N[C@@H](C(=O)N1CCC[C@H]1C(=O)NC[C@H]1CC[C@H](N)CC1)C(c1ccccc1)c1ccccc1 | 0.102
CC(C)(C)C[C@@H](NS(=O)(=O)Cc1ccccc1)C(=O)N1CCC[C@H]1C(=O)NC[C@H]1CC[C@H](N)CC1 | 0.4
N[C@H]1CC[C@H](CNC(=O)[C@@H]2CCCN2C(=O)CC(c2ccccc2)c2ccccc2)CC1 | 2
CC1(C)C2CCC1(CS(=O)(=O)N[C@H](CC1CCCCC1)C(=O)N1CCC[C@H]1C(=O)NC[C@H]1CC[C@H](N)CC1)C(=O)C2 (some centres unmarked) | 0.1
N[C@H]1CC[C@H](CNC(=O)[C@@H]2CCCN2C(=O)[C@@H](Cc2ccccc2)NCC(=O)O)CC1 | 1.3
CC(C)(C)OC[C@@H](NS(=O)(=O)CC12CCC(CC1=O)C2(C)C)C(=O)N1CCC[C@H]1C(=O)NC[C@H]1CC[C@H](N)CC1 (some centres unmarked) | 0.05
N[C@@H](C(=O)N1CCC[C@H]1C(=O)NC[C@H]1CC[C@H](N)CC1)C(c1ccccc1)c1ccccc1 | 0.12

Same assay, conditions: compared with the other diastereomer

Structure (SMILES) | relative activity of diastereomers in a thrombin inhibition assay
N[C@H]1CC[C@H](CNC(=O)[C@@H]2CCCN2C(=O)[C@H](NS(=O)(=O)Cc2ccccc2)C(c2ccccc2)c2ccccc2)CC1 (single isomer, unassigned) [Example 9 less polar diastereomer, trans-4-Amino-cyclohexylmethyl N-(benzylsulfonyl)-D and L-3,3-diphenylalanyl-L-proline amide] | more active isomer
N[C@@H](C(=O)N1CCC[C@H]1C(=O)NC[C@H]1CC[C@H](N)CC1)C(c1ccccc1)c1ccccc1 (single isomer, unassigned) [Example 7 less polar diastereomer, trans-4-Aminocyclohexylmethyl L- and D-(3,3)-diphenyl alanyl-L-proline amide] | more active isomer

Tested on: thrombotic occlusion of the right carotid artery
Assay: In vivo rat ferric chloride assay measuring thrombotic occlusion
Design: species or system Male Sprague-Dawley rats
Conditions: i.v. dose 1 μg/kg/min, FeCl3, rats
Protocol: Applicants have conducted in vivo studies of the compounds claimed herein using the following rat ferric chloride assay.
In the assay used to determine in vivo activity of the thrombin inhibitors or the invention, Male Sprague-Dawley rats (body weights 200-350 grams) were anesthetized with dial-urethane solution (0.1 ml/100 gm body weight i.p.), and a lateral tail vein was cannulated with a 23 gauge needle connected to a 12 inch length of PE50 tubing. The tubing was attached to a 3-way valve by a tubing adapter. Saline (control) or test compound, as appropriate, was administered via the tail vein catheter. A tracheostomy was performed with a 0.75 inch length of PE205 tubing. The right carotid artery was exposed and a 1.3 mm diameter Doppler flow probe was placed on the vessel. Body temperature was maintained at 37° C. using a heat lamp.
Rats (8-10/group) were randomized to continuous intravenous infusions of saline or test compound administered via the tail vein at a rate of 0.028 ml/min. Treatment infusions were initiated 120 min before the placement of a 3 mm square piece of Whatman No. 1 filter paper saturated with 35% FeCl3 onto the exposed carotid artery distal to the flow probe. […] Time to occlusion was defined as the time from application of FeCl3 to thrombotic occlusion of the vessel.

Structure (SMILES) | Incidence of occlusion
N[C@H]1CC[C@H](CNC(=O)[C@@H]2CCCN2C(=O)[C@H](NCC(=O)O)C(c2ccccc2)c2ccccc2)CC1 [drawing 47] | 1/6
C[C@@H](N[C@@H](C(=O)N1CCC[C@H]1C(=O)NC[C@H]1CC[C@H](N)CC1)C(c1ccccc1)c1ccccc1)C(=O)O [drawing 48] | 1/6

Same assay, conditions: i.v. dose 10 μg/kg/min, FeCl3, rats

Structure (SMILES) | Incidence of occlusion
N[C@H]1CC[C@H](CNC(=O)[C@@H]2CCCN2C(=O)[C@H](NCC(=O)O)C(c2ccccc2)c2ccccc2)CC1 [drawing 47] | 0/6
C[C@@H](N[C@@H](C(=O)N1CCC[C@H]1C(=O)NC[C@H]1CC[C@H](N)CC1)C(c1ccccc1)c1ccccc1)C(=O)O [drawing 48] | 0/6
